Laboratory results published in patent publication US7803844B2, “Composition for preventing and/or treating bone disease, physiologically functional or health food containing thereof, and pharmaceutical containing thereof as active ingredients” (Erina Co. Inc., priority 2004, dated 2010).
pIC50: −log10 of the molar value. Where two headings read alike, the source gives them in different places.

Assays:
MφRAW264 cells [1] = experiment: Inhibition assay I of the early phase differentiation of osteoclast (TRAP activity); format: cell-based; conditions: for TRAP activity (control %): MφRAW264 cells stimulated by 50 ng/mL ODF/RANKL, honokiol 3-30 μM, magnolol 20-60 μM; for pIC50: Osteoclast, 72 h, read-out: IC50, inhibition of MφRAW264 cells to osteoclast by RANKL
Description: Macrophage RAW264 cell line (RIKEN. cell No. CB0535, herein below, referred to as “MφRAW264”), which may differentiate to osteoclast-like cells, was used in the inhibition assay of the early phase differentiation of osteoclast. α-MEM (Invitrogen Co., Cat. No. 11900-024) including 10% of fetal bovine serum (Asahi Technoglass Co., (IWAKI), Cat. No. IWK-500) was used for cultivating MφRAW264. Osteoclast differentiation factor (ODF/RANKL) was purchased from Pepro Tech Inc., Cat. No. 310-01. Inhibition assay I of the early phase differentiation of osteoclast was performed for evaluating the inhibition level of the bone resorption in vitro, the differentiation assay of osteoclast from MφRAW264 cells in early stage. Results of the osteoclast assay were evaluated by determining tartrate resistant acid phosphatase (TRAP) activity, an early stage differentiation marker, and TRAP staining. By using these two indices, activities of flavones from MφRAW264 cells to osteoclast are quantitatively evaluated. MφRAW264 cells were suspended in a α-MEM supplemented 10% of fetal bovine serum (FBS), which is referred to as “10% FBS-MEM herein below”, and plated at 1×10^5 cells/10 mL in 100 mm φ dishes. Then, the dishes were incubated under the presence of 5% of CO2, at 37° C. for 3 days. After confirmed that the plated cells in the dishes became confluent, the incubation was finished. Subsequently, when the cells became confluent, they were treated by using 0.05% of trypsin and Hank's balanced salt solution containing 0.53 mM of EDTA (0.05% Trypsin-0.53 mM EDTA/HBSS (Invitrogen Co., Cat. No. 25300-054) to scrape them, and then suspended in 10% FBS-MEM to plate 0.4×10^4 cells/0.1 mL per each well of 96-well microplates. Then, the plates were incubated one day under the same condition as described above. Osteoclast differentiation factor (ODF/RANKL) was dissolved in 10% FBS-MEM to prepare 100 ng/mL of solution. Alternatively, a stock solution of honokiol was prepared at the concentration of 10 mM in methanol, and stored at −20° C. […] Equal volume of methanol was solely added into the control wells. Honokiol used in the following experiments were the solutions having each concentration prepared as described above. […] Equal volume of methanol without honokiol was added into the control wells. […] Incubation medium in each well of the 96-well microplate was discarded. […] After drying, tartrate resistant acid phosphatase activity was determined (hereinafter, it is referred to as “TRAP assay”), and staining of cells in the well was performed. […] Thirty minutes later, the reaction was terminated by adding 0.1 mL of 0.1 M NaOH, and released p-nitrophenol was determined by the spectrophotometer (Dainippon Pharmaceutical Co. Ltd.) at wave length 405 nm. […]

MφRAW264 cells [2] = experiment: Proliferated cell number counting assay (XTT cell viability)
Experimental: As a non-RI method for determining cell proliferation and cell viability, color reaction by using XTT was employed. MφRAW264 cells were suspended in 10% FBS-MEM, and plated into the 96-well microplate at 0.4×10^4 cells/0.1 mL; then incubated for 1 day. Subsequently, 10% FBS-MEM solution of osteoclast differentiation factor (ODF/RANKL), 100 ng/mL, was added into 0.1 mL per well at final concentration of RANKL, 50 ng/mL. At the same time, honokiol solution at respective concentration was added into the wells. For the control wells, equal volume of methanol not including honokiol was added.
After 3 days incubation, the proliferated cells were counted by using commercially available Cell Proliferation Kit II (Roche Diagnostics Inc., Cat. No. 1 465 015) to obtain the cell viability. The procedure was carried out according to the instruction manual attached, and brief summaries were as follows.
XTT labeling reagent and electron coupling reagent included in the kit were mixed at the ratio of 50:1, and 50 μL of mixture was added per 0.1 mL of medium in each well; then reacted for 4 hours at 37° C. After the termination of the reaction, absorbance at 492 nm of the wave length was measured by using ELISA plate reader (Dainippon Pharma Co.), wherein the reference wave length was 690 nm.
In the above-mentioned (2-2), the same cell proliferation counting assay II was performed instead of honokiol to magnolol and their concentration used was at the range from 20 to 60 μM.

[3] = test system: M-CSF dependent cells derived from mice bone marrow cells (BMM); experiment: Inhibition assay II of the early stage differentiation of osteoclast (TRAP activity); format: cell-based, mouse; conditions: for pIC50: Bone marrow cell, read-out: IC50, inhibition of differentiation from M-CSF dependent bone marrow cells to osteoclast induced by RANKL; for TRAP activity (control %): 1.5 days, honokiol 3-30 μM, magnolol 20-60 μM
Experimental: Mouse bone marrow cells were obtained from femurs and shanks of male ddy mice from 6 to 9 week age (Chubu Kagaku Shizai Co. Ltd.)
From 6 to 9 week ages of ddy mice, the femurs and shanks were excised. The bone row cells were extruded from these bones by using a syringe with 22 G×1 and ¼ gauge needle to obtain.
Obtained bone marrow cells were suspended in 10% FBS-MEM supplemented with 100 μg/mL of sodium streptomycin, 100 U/mL of sodium penicillin G, 50 ng/mL of M-CSF, and 1 ng/mL of TGF-β, and then inoculated to each well of the 96-well microplate at the cell concentration of 1×10^6 cells/0.1 mL/well. Then, the plates were incubated under the presence of 5% CO2, at 37° C.
After 3 days incubation, the culture medium was exchanged to that including 50 ng/mL of M-CSF and 50 ng/mL of osteoclast differentiation factor (DF/RANKL), simultaneously honokiol prepared as the same concentration as used in the example 1 was added. The medium of the control group was exchanged that including M-CSF and ODF/RANKL, but no honokiol. The plates were further incubated under the condition of the presence of 5% CO2, at 37° C.
After 1.5 days from the medium exchange, tartrate resistant acid phosphatase activity, the early stage differentiation marker, was measured. Medium in each well was discarded and washed plate with PBS, the cells in the well was fixed for 15 minutes by using 10% HCHO/PBS. Furthermore, the cells were fixed by using ethanol-acetone (1:1) mixture. After fixation, the fixed mixture was discarded and dried at room temperature. After drying, tartrate resistant acid phosphatase (TRAP) of the cells in each well was measured and stained similarly to those in the example 1.
The inhibition assay of the early stage differentiation of osteoclast was carried out similarly to the described above, except honokiol used in the above mentioned (3-2) was substituted to magnolol, and its concentration was from 20 to 60 μM.

[4] = test system: M-CSF dependent cells derived from mice bone marrow cells (BMM); experiment: Cell proliferation counting assay (XTT) in bone marrow derived cells
Experimental: Alternatively, the cell proliferation counting assay was performed as the same as that in the example 1, the cell viability was obtained. In FIG. 2A, the cell viability was shown as white columns.

MφRAW264 cells [5] = experiment: Actin ring formation assay I; format: cell-based; conditions: 20 μM, 1 day after actin ring formation, MφRAW264 with ODF/RANKL and PD98059
Experimental: After that, 0.1 mL of the medium including 100 ng/mL of ODF/RANKL and 20 μM PD98059 was added, and further incubated under the same condition (final concentration of RANKL was 50 ng/mL, and that of PD98059 10 μM). In order to promote the differentiation to the activated osteoclast, two days after the addition of ODF/RANKL and PD98059, the medium was exchanged to that including 50 ng/mL of ODF/RANKL as described above; then the plate was incubated until the actin ring, the activated structure of osteoclast, formation was confirmed. After actin ring was formed, honokiol prepared as the same as that prepared in the example 1 was added, and cultured further one day. […] One day after when honokiol was added to culture, TRAP staining of the tartrate resistant acid phosphatase (TRAP) in each well, similarly o those performed.

[6] = test system: M-CSF dependent cells derived from mice bone marrow cells; experiment: Pit formation assay of mature osteoclast; format: cell-based, mouse; conditions: 10 μM, 1 day, calcium phosphate apatite coated plate
Experimental: Alternatively, the bone marrow cells were obtained form the shanks and femurs from ddy mice of 6 to 9 week age, similarly to the methods employed in the example 3.
Obtained bone marrow cells were suspended in 10% FBS-MEM including 100 U/mL of sodium penicillin G, 100 μg/mL of streptomycin sulfate, 50 ng/mL of M-CSF, and 1 ng/mL of TGF-β. Then, the suspension was plated at 0.85×10^6 cells/0.1 mL/well into the 16 well multi slide plate (BioCoat Osteologic Bone Cell Culture System; BD Biosciences, Cat. No.: 354609) which was coated by calcium phosphate apatite, and incubated under the presence of 5% CO2, at 37° C.
After three days incubation, the medium was exchanged to that including 50 ng/mL of M-CSF and 100 ng/mL of osteoclast differentiation factor (ODF/RANKL). Subsequently, the plates were incubated under the same condition until the formation of actin ring, the osteoclast activated structure, was confirmed. After the actin ring was formed, honokiol prepared as the same concentration used in the example 1 is added, and incubated further one day. To the control group, the solvent without honokiol was added.
After 1 day incubation from the addition of honokiol, the medium in the well was discarded, and the plate was washed by using phosphate buffered saline (PBS); then, 0.1 mL of 0.1 M NaOH is added to every well to dissolve the cells in it. […]

MC3T3-E1 cells [7] = experiment: Cell viability after osteoblast differentiation induction (MTT assay); format: cell-based, mice; conditions: 30 μM, 7 days
Experimental: As an evaluation method for the effect against the differentiation of osteoblast, MC3T3-E1 cell osteoblast differentiation induction assay was used. In the assay, the activity of alkaline phosphatase (ALP), the early stage differentiation marker enzyme of osteoblast, was determined, and the staining utilizing the activity (ALP staining) was performed. Expression level of osteocalcin, which is the marker of the differentiated osteoblast, was determined by using the EIA kit described above. Furthermore, in order to know the cytotoxicity, the cell viability was determined by using MTT assay. MC3T3-E1 cells were plated into the wells of the 96-well microplate at the concentration of 4×10^3 cells/well, and incubated two days under the presence of 5% of CO2, at 37° C. until cells became confluent in the well. […] The medium was exchanged every 3 or 4 days. In order to determine the cell viability, MC3T3-E1 cells were cultured for 7 days under the condition as described above. After that, MTT reagent was added into the well at the 1/10 volume of the medium in the well, and reacted for 1 hour at 37° C. Then, the medium was removed, and generated formazan was dissolved in DMSO; then its absorbance was measured by using microplate reader at the wave length of 570 nm (reference wave length was 630 nm).

MC3T3-E1 cells [8] = experiment: Osteoblast differentiation induction assay, ALP activity; format: cell-based, mice; conditions: 3 to 30 μM, 7 days
Experimental: As an evaluation method for the effect against the differentiation of osteoblast, MC3T3-E1 cell osteoblast differentiation induction assay was used. In the assay, the activity of alkaline phosphatase (ALP), the early stage differentiation marker enzyme of osteoblast, was determined, and the staining utilizing the activity (ALP staining) was performed. Expression level of osteocalcin, which is the marker of the differentiated osteoblast, was determined by using the EIA kit described above. Furthermore, in order to know the cytotoxicity, the cell viability was determined by using MTT assay. MC3T3-E1 cells were plated into the wells of the 96-well microplate at the concentration of 4×10^3 cells/well, and incubated two days under the presence of 5% of CO2, at 37° C. until cells became confluent in the well. […] The medium was exchanged every 3 or 4 days. ALP activity was determined as follows. At first, MC3T3-E1 cells were cultured for 7 days under the same condition as described above; then the medium was removed, and washed by using PBS. After that cells were fixed by using methanol and the dish was dried. […] The reaction was terminated by adding 100 μL of 0.1 N NaOH, and released p-nitrophenol was determined by measuring absorbance at the wave length of 405 nm, by using the plate reader for obtaining ALP activity. […]

MC3T3-E1 cells [9] = experiment: Osteoblast differentiation induction assay, osteocalcin concentration (EIA); format: cell-based, mice; conditions: 3 to 30 μM, 14 days, culture supernatant
Experimental: As an evaluation method for the effect against the differentiation of osteoblast, MC3T3-E1 cell osteoblast differentiation induction assay was used. In the assay, the activity of alkaline phosphatase (ALP), the early stage differentiation marker enzyme of osteoblast, was determined, and the staining utilizing the activity (ALP staining) was performed. Expression level of osteocalcin, which is the marker of the differentiated osteoblast, was determined by using the EIA kit described above. Furthermore, in order to know the cytotoxicity, the cell viability was determined by using MTT assay. MC3T3-E1 cells were plated into the wells of the 96-well microplate at the concentration of 4×10^3 cells/well, and incubated two days under the presence of 5% of CO2, at 37° C. until cells became confluent in the well. […] The medium was exchanged every 3 or 4 days. In order to determine the concentration of osteocalcin, culture supernatant of MC3T3-E1 cells cultured for 14 days under the above-mentioned conditions was used. Amount of osteocalcin in the culture supernatant was determined according to the procedure written on an instruction manual attached to the EIA kit.

acid phosphatase = conditions: cited from earlier work
[10] = mouse bone marrow M-CSF dependent cells, 50 ng/mL RANKL

SMILES | TRAP activity (control %) (MφRAW264 cells [1]; 3 days) | pIC50 (MφRAW264 cells [1]; MφRAW264 cells, RANKL 50 ng/mL, 3 days) | non-specific cytotoxicity to MφRAW264 cells (MφRAW264 cells [2]) | pIC50 [3, 10] | TRAP activity (control %) [3, 10] | non-specific cytotoxicity (XTT assay) [4] | actin rings (activated structure of osteoclast) (MφRAW264 cells [5]) | pit formation [6] | cell viability of MC3T3-E1 cells (MC3T3-E1 cells [7]) | ALP activity (MC3T3-E1 cells [8]) | expression level of osteocalcin (MC3T3-E1 cells [9]) | inhibition activity of acid phosphatase (acid phosphatase) | pIC50 (MφRAW264 cells [1]) | cell viability (ratio against control wells = 100) (MφRAW264 cells [2]; MφRAW264 cells, XTT, 3 days, honokiol 3-30 μM, magnolol 20-60 μM) | non-specific cytotoxicity to MφRAW264 cells (MφRAW264 cells [2]; XTT, 3 days) | pIC50 ([3]; Mus musculus) | non-specific cytotoxicity (XTT assay) ([4]; mouse bone marrow M-CSF dependent cells)
C=CCc1ccc(O)c(-c2ccc(O)c(CC=C)c2)c1 [honokiol] | dose-dependently inhibited | 4.82 | does not show non-specific cytotoxicity | 5.00 | inhibited, depending on the dose | did not show non-specific cytotoxicity | destructed | significantly decreased | slightly decreased | enhanced in dose dependent manner | enhanced | has the inhibition activity of the acid phosphatase |  |  |  |  | 
C=CCc1ccc(O)c(-c2cc(CC=C)ccc2O)c1 [magnolol] | dose-dependently inhibited |  |  |  | dose-dependently inhibited |  |  |  |  |  |  | has the inhibition activity of the acid phosphatase | 4.52 | seldom decreased | does not show non-specific cytotoxicity | 4.52 | did not show the non-specific cytotoxicity
